Test system: 922993-354-T-J3-PDC complex spheroids, viability, % test/control
Experiment: Anticancer human tumor 922993-354-T-J3-PDC patient-derived endometrial carcinoma cell line growth inhibition [CLK]
Details: for IC50: curve of first compound; for viability, T/C: stronger effect = lower value
Excerpt: A high-throughput screen of multi-cell type tumor spheroids was designed to identify active combinations of […] and targeted small molecules. Complex spheroids include a stromal component modeled by human endothelial cells (HUVEC) and fibroblasts modeled by human mesenchymal stem cells (MSCs). The concentration ranges selected for each drug and investigational agent were based upon clinically achievable concentrations if the clinical Cmax of the agent was known.
Compounds. The drugs and investigational agents: cirtuvivint (SM08502; NSC835563), CC-671 (NSC850746), vemurafenib (NSC761431), tapotoclax (NSC804041), sotorasib (NSC818433), adagrasib (NSC831453), MRTX-1133 (NSC836407), BAY2416964 (NSC825713), copanlisib (NSC816437), inavolisib (NSC800729), abemaciclib (NSC768073), osimertinib (NSC779217), entinostat (NSC756642), eltanexor (KPT-8602, NSC794443), venetoclax (NSC766270), ceralasertib (NSC777638), bortezomib (NSC756655), olaparib (NSC753686), talazoparib (NSC767125), alisertib (NSC759677), peposertib (NSC802822), gemcitabine (NSC613327), 5-fluorouracil (NSC19893), SN-38 (NSC673596), oxaliplatin (NSC266046), paclitaxel (NSC125973), and doxorubicin (NSC123127), were obtained from the National Cancer Institute (NCI) Developmental Therapeutics Program Chemical Repository. The FDA-approved anticancer drug set is available from the Developmental Therapeutics Program at https://dtp.cancer.gov/organization/dscb/obtaining/available plates.htm. […] The stock solutions were prepared in dimethyl sulfoxide (DMSO, Sigma-Aldrich, St. Louis, MO, cat. D2650), except for the platinum complexes which were prepared in saline (Quality Biological, Gaithersburg, MD, cat. 114-055-101), at 800-fold the tested concentration and stored at -70 degrees C prior to their use. All drugs and investigational agents were tested over a range starting from a high concentration at or near the clinical Cmax and decreasing in half-log increments. If the clinical Cmax for an agent had not been determined, the highest concentration tested was 10 microM.
Cell Culture. All cells were maintained in an incubator at 37 degrees C and 5% CO2 with 95% humidity. The PDC lines were cultured according to standard operating procedures established by the NCI PDMR. Briefly, all PDCs were thawed and cultured in Matrigel-coated flasks prepared with a working solution of 1X Ham's F-12 nutrient mix, without supplementation (Invitrogen, Waltham, MA, cat. 11765054), 100 U/mL penicillin-streptomycin (Invitrogen, cat. 15140122), and 2.5% Matrigel (Corning Inc., Corning, NY, cat. 354248) for the first three passages. The 947758-054-R-J2-PDC line was cultured in 6B/Colon 1A media, which includes advanced DMEM/F-12 (Thermo Fisher Scientific, cat. 12634028), 10 mM HEPES (Thermo Fisher Scientific, cat. 15630080), 1X GlutaMAX supplement (Thermo Fisher Scientific, cat. 35050061), 0.1 mg/mL primocin (InvivoGen, cat. ant-pm-2), 10% defined fetal bovine serum, heat inactivated (HyClone Laboratories Inc., cat. SH30070.03HI), 1.25 mM N-Acetyl-L-cysteine (Sigma-Aldrich, cat. A9165), 10 mM nicotinamide (Sigma-Aldrich, cat. N0636), 1X B-27 supplement (Thermo Fisher Scientific, cat. 17504044), 1X N-2 supplement (Thermo Fisher Scientific, cat. 17502048), and 10 microM Y-27632 dihydrochloride (Tocris Bioscience, cat. 1254). The 876862-298-R-J1-PDC was cultured in 6E media, which includes all 6B/Colon 1A media components plus 50% L-WRN conditioned media (ATCC, cat. CRL-3276), 50 ng/mL recombinant human EGF recombinant protein (hEGF; Thermo Fisher Scientific, cat. PHG0311), 10 ng/mL recombinant human fibroblast growth factor 10 (hGFG-10; PeproTech, cat. 100-26), 1 ng/mL recombinant human fibroblast growth factor 2 (hFGF-2; PeproTech, cat. 100-18B), and 1 µM prostaglandin E2 (PGE2; Tocris, cat. 2296). The 227483-062-R1-J1-PDC line was cultured in Panc media, containing all 6E components except hFGF-2, with the addition of 500 nM SB-431542 (Selleckchem, cat. S1067) and 10 nM gastrin (Tocris, cat. 3006). […]

[1] = second compound 0.0316 µM, first compound 0.0316 µM
[2] = second compound 0.0316 µM, first compound 0.1 µM
[3] = second compound 0.0316 µM, first compound 0.316 µM
[4] = second compound 0.0316 µM, first compound 1 µM
[5] = second compound 0.0316 µM, first compound 3.16 µM
[6] = second compound 0.0316 µM, first compound 10 µM
[7] = second compound 0.1 µM, first compound 0.0316 µM
[8] = second compound 0.1 µM, first compound 0.1 µM
[9] = second compound 0.1 µM, first compound 0.316 µM
[10] = second compound 0.1 µM, first compound 1 µM
[11] = second compound 0.1 µM, first compound 3.16 µM
[12] = second compound 0.1 µM, first compound 10 µM
[13] = second compound 0.316 µM, first compound 0.0316 µM
[14] = second compound 0.316 µM, first compound 0.1 µM
[15] = second compound 0.316 µM, first compound 0.316 µM
[16] = second compound 0.316 µM, first compound 1 µM
[17] = second compound 0.316 µM, first compound 3.16 µM
[18] = second compound 0.316 µM, first compound 10 µM
[19] = second compound 1 µM, first compound 0.0316 µM
[20] = second compound 1 µM, first compound 0.1 µM
[21] = second compound 1 µM, first compound 0.316 µM
[22] = second compound 1 µM, first compound 1 µM
[23] = second compound 1 µM, first compound 3.16 µM
[24] = second compound 1 µM, first compound 10 µM
[25] = second compound 3.16 µM, first compound 0.0316 µM
[26] = second compound 3.16 µM, first compound 0.1 µM
[27] = second compound 3.16 µM, first compound 0.316 µM
[28] = second compound 3.16 µM, first compound 1 µM
[29] = second compound 3.16 µM, first compound 3.16 µM
[30] = second compound 3.16 µM, first compound 10 µM
[31] = second compound 10 µM, first compound 0.0316 µM
[32] = second compound 10 µM, first compound 0.1 µM
[33] = second compound 10 µM, first compound 0.316 µM
[34] = second compound 10 µM, first compound 1 µM
[35] = second compound 10 µM, first compound 3.16 µM
[36] = second compound 10 µM, first compound 10 µM
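Also: spheroids exposed to the agents for 7 days before readout.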

## CCCS(=O)(=O)Nc1ccc(F)c(C(=O)c2c[nH]c3ncc(-c4ccc(Cl)cc4)cc23)c1F + CN1CCN(c2cc(C(=O)Nc3cc4cc(-c5cnn(C)c5)ccc4cn3)ccn2)CC1
Second compound 0.0316 µM
  IC50: > 10000 nM
Second compound 0.1 µM
  IC50: 9220 nM
Second compound 0.316 µM
  IC50: < 31.6 nM
Second compound 1 µM
  IC50: < 31.6 nM
Second compound 3.16 µM
  IC50: < 31.6 nM
Second compound 10 µM
  IC50: < 31.6 nM
[1]
  viability, T/C: 95.3%
[2]
  viability, T/C: 113%
[3]
  viability, T/C: 118%
[4]
  viability, T/C: 97.9%
[5]
  viability, T/C: 96.6%
[6]
  viability, T/C: 65.3%
[7]
  viability, T/C: 107%
[8]
  viability, T/C: 90.5%
[9]
  viability, T/C: 91.5%
[10]
  viability, T/C: 87.6%
[11]
  viability, T/C: 86.2%
[12]
  viability, T/C: 46.7%
[13]
  viability, T/C: 46.6%
[14]
  viability, T/C: 40.4%
[15]
  viability, T/C: 43.4%
[16]
  viability, T/C: 43.9%
[17]
  viability, T/C: 44.6%
[18]
  viability, T/C: 26.7%
[19]
  viability, T/C: 0.14%
[20]
  viability, T/C: 0.16%
[21]
  viability, T/C: 0.15%
[22]
  viability, T/C: 0.15%
[23]
  viability, T/C: 1.71%
[24]
  viability, T/C: 1.78%
[25]
  viability, T/C: 0.09%
[26]
  viability, T/C: 0.13%
[27]
  viability, T/C: 0.82%
[28]
  viability, T/C: 0.14%
[29]
  viability, T/C: 2.22%
[30]
  viability, T/C: 1.32%
[31]
  viability, T/C: 0.18%
[32]
  viability, T/C: 0.16%
[33]
  viability, T/C: 1.26%
[34]
  viability, T/C: 0.19%
[35]
  viability, T/C: 1.53%
[36]
  viability, T/C: 0.25%

## COC1C=CCC(C)C(C)S(=O)(=O)NC(=O)c2ccc3c(c2)N(CC2CCC21)CC1(CCCc2cc(Cl)ccc21)CO3 (centres undefined) + CN1CCN(c2cc(C(=O)Nc3cc4cc(-c5cnn(C)c5)ccc4cn3)ccn2)CC1
Second compound 0.0316 µM
  IC50: 5390 nM
Second compound 0.1 µM
  IC50: 3790 nM
Second compound 0.316 µM
  IC50: < 31.6 nM
Second compound 1 µM
  IC50: < 31.6 nM
Second compound 3.16 µM
  IC50: < 31.6 nM
Second compound 10 µM
  IC50: < 31.6 nM
[1]
  viability, T/C: 111%
[2]
  viability, T/C: 107%
[3]
  viability, T/C: 85.1%
[4]
  viability, T/C: 91.4%
[5]
  viability, T/C: 84.9%
[6]
  viability, T/C: 13.6%
[7]
  viability, T/C: 122%
[8]
  viability, T/C: 99.7%
[9]
  viability, T/C: 85.6%
[10]
  viability, T/C: 90.1%
[11]
  viability, T/C: 60.6%
[12]
  viability, T/C: 10.8%
[13]
  viability, T/C: 42.2%
[14]
  viability, T/C: 48%
[15]
  viability, T/C: 31.7%
[16]
  viability, T/C: 21.1%
[17]
  viability, T/C: 13.6%
[18]
  viability, T/C: 7.1%
[19]
  viability, T/C: 0.12%
[20]
  viability, T/C: 0.13%
[21]
  viability, T/C: 0.15%
[22]
  viability, T/C: 0.22%
[23]
  viability, T/C: 0.1%
[24]
  viability, T/C: 0.79%
[25]
  viability, T/C: 0.11%
[26]
  viability, T/C: 0.17%
[27]
  viability, T/C: 1.93%
[28]
  viability, T/C: 0.13%
[29]
  viability, T/C: 2.55%
[30]
  viability, T/C: 0.89%
[31]
  viability, T/C: 0.15%
[32]
  viability, T/C: 1.42%
[33]
  viability, T/C: 1.53%
[34]
  viability, T/C: 0.22%
[35]
  viability, T/C: 0.8%
[36]
  viability, T/C: 2.41%
